Test results: US20240115744A1, “FIBRIN-BINDING COMPOUNDS FOR IMAGING AND TREATMENT” (Collagen Medical, LLC, priority 2019, published 2024)
Entries after “also recorded” stand apart in the source; their conditions may differ. *1 amine or outer side, *2 acyl side, *3 side chain or, on linkers, in order; H or OH if unused. Where a SMILES comes first, the peptide text is derived from it. Bridges are numbered along the chain shown (N, C = ends). [ ]: non-standard residue; d: D form. The star is where a group is joined. NODAGA = O=C(O)CN1CCN(CC(=O)O)CCN(C(CCC(=O)*)C(=O)O)CC1; Tyr(3-Cl) = N[C@@H](Cc1ccc(O)c(Cl)c1)C(=O)O; X1 = O=C([C@@H]1CC(O)CN1[*:1])[*:2]

Columns and labels:
[1] = target: T1, fibrin in human carotid endarterectomy specimens (Homo sapiens, UniProt P02671+P02675+P02679); assay: Ex vivo autoradiography of human carotid endarterectomy specimens; details: compared to non-binding probe ^68Ga-22; 12 patients; P<0.05
T1 construct: discarded surgical specimens from asymptomatic patients who underwent elective carotid endarterectomy; from tissue; host or cells: human carotid endarterectomy specimens (cryosections or tissue pieces)
T1 sequence (P02671 36-644 isoform P02671-2 limits assumed): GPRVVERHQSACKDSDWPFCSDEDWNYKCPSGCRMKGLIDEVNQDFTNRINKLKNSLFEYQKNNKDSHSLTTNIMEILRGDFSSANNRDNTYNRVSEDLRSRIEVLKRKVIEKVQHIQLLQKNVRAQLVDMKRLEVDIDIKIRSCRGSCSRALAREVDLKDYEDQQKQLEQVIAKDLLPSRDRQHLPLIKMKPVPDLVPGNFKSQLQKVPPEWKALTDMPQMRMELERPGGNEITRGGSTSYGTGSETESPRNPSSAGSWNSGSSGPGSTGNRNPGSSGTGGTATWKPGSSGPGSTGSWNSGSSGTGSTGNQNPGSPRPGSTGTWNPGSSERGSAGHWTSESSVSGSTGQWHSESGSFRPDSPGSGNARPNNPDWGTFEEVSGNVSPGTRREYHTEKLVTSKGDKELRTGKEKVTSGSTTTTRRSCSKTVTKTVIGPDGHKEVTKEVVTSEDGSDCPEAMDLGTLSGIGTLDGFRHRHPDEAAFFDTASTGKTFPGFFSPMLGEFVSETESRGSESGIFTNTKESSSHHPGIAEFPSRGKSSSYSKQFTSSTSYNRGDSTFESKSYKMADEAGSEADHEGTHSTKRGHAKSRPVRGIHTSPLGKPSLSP
T1 sequence (P02675 45-491 limits assumed): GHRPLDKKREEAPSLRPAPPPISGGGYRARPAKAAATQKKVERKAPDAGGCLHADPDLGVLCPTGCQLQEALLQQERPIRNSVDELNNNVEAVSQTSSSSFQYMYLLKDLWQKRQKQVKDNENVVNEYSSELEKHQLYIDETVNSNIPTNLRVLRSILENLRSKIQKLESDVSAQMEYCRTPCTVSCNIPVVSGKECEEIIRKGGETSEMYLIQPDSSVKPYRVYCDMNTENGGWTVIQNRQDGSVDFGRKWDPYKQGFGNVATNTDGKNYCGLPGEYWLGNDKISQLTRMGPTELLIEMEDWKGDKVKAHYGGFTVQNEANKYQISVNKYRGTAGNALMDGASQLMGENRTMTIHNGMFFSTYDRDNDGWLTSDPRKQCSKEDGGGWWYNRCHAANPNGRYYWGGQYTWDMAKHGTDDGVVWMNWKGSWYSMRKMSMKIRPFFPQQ
T1 sequence (P02679 27-437 isoform P02679-2 limits assumed): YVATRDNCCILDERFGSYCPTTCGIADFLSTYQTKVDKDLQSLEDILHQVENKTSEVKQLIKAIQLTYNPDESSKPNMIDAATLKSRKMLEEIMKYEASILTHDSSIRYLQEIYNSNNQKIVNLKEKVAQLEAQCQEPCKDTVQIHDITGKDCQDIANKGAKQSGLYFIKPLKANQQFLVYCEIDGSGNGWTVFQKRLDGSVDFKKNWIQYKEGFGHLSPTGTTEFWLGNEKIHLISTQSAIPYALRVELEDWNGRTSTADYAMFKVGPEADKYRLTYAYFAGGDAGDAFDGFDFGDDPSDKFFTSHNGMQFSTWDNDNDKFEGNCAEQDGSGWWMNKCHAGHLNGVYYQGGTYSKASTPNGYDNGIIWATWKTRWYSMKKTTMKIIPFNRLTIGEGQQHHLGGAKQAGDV
Description: Twelve discarded surgical specimens from asymptomatic patients who underwent elective carotid endarterectomy at Massachusetts General Hospital were obtained and used in ex vivo studies described herein. Samples were processed for histology, autoradiography, and probe binding assay as described above (Examples 6 and 13).
Discarded surgical specimens were embedded in optimal cutting temperature compound, snap-frozen, and stored at −80° C. before further analysis. Alternating consecutive cryosections were processed for histology and autoradiography; triplicate tissue samples with 50 μm gap in between were used for these experiments. The remaining tissue samples were processed for functional probe assay.
For autoradiography, three 30 μm-thick sections were incubated with ^68Ga-20 or non-fibrin binding control probe ^68Ga-22 for 45 minutes on a lab shaker at room temperature. Autoradiography was performed after three washes of PBS. The exposure time was 2 minutes.

[2] = test system: Fibrin clots; assay: PET in rabbit model of high risk plaque (plaque-rupture model); type: in vivo
Excerpt: Mean SUV values, TBRvc and TBRm were compared across all rabbits after in vivo PET.

CC[C@H](C)[C@H](NC(=O)[C@H](Cc1cnc[nH]1)NC(=O)[C@@H]1CSSC[C@H](NC(=O)[C@@H](CCC(=O)O)NC(=O)[C@H](Cc2ccc(O)cc2)NC(=O)CCC(C(=O)O)N2CCN(CC(=O)O)CCN(CC(=O)O)CC2)C(=O)N2CC(O)C[C@H]2C(=O)N[C@@H](Cc2ccc(O)c(Cl)c2)C(=O)NCC(=O)N[C@@H](CC(C)C)C(=O)N1)C(=O)N[C@H](CCC(N)=O)C(N)=O (stereo partly shown) [Compound ^68Ga-20, metal not drawn] ({NODAGA}-Y[dE]C[X1][Tyr(3-Cl)]GLCHI[dQ]-NH2; disulfide 3-8)
uptake, autoradiography [1]: variable but significantly increased; also recorded: significantly higher uptake | plaque rupture-to-control SUV ratios ([2]; across post injection imaging time points): higher plaque rupture-to-control SUV ratios were seen with longer post injection imaging time points | PET-MR uptake along the aorta ([2]; plaque rupture group vs control): Fibrin clots were seen as uptake spots along the aorta on the plaque rupture group | validation in rabbit model of high risk plaque ([2]; plaque-rupture model, in vivo PET): successfully validated
